Test results from ChEMBL document CHEMBL3137440, “DNDi T. cruzi fenarimol series dataset from which preclinical candidate EPL-BS0967 was identified (see also related datasets: CHEMBL3137386 and CHEMBL2448688)”.
In brackets after ≈: the same amount, converted by molar mass. Several values for one entry are separate records, joined by “and”; a condition that tells them apart may be missing. Equal entries are not always repeated.

What was measured:
[1] = DNDI: Solubility, 24 hour, FaSSIF, 37C; format: physicochemical; settings: read-out: Equilibrium
in vitro [2] = settings: mouse, microsomes
[3] = DNDI: Solubility, 24 hour, SGF, 37C; format: physicochemical; settings: read-out: Equilibrium
[4] = (§1) DNDI: Metabolism; format: ADME, Canis lupus familiaris, Microsome; settings: dog, microsomes
[5] = DNDI: Solubility, 24 hour, FeSSIF, 37C; format: physicochemical; settings: read-out: Equilibrium
[6] = (§2) DNDI: Stability, 4 hour; format: ADME, tissue-based, Canis lupus familiaris; settings: dog, blood
Cytochrome P450 1A2 = biological target: T1, Cytochrome P450 1A2 (Homo sapiens, UniProt P05177); assay: (§3) DNDI: CYP Inhibition; format: ADME
T1 sequence (P05177 whole entry): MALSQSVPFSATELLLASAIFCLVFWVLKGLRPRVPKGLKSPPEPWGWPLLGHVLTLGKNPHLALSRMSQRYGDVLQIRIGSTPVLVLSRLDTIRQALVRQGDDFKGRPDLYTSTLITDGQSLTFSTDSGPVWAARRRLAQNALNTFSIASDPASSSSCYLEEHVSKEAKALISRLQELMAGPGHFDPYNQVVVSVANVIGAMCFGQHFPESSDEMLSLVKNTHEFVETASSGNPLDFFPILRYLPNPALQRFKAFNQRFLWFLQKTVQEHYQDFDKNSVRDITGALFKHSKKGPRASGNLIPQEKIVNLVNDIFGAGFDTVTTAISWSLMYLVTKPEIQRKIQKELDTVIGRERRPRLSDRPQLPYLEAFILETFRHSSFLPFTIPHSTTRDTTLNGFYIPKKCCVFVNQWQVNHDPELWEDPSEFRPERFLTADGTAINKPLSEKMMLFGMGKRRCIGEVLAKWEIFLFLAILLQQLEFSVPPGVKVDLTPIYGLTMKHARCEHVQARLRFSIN

Cytochrome P450 2D6 = Cytochrome P450 2D6 (Homo sapiens, UniProt P10635); assay: as §3; format: ADME
[7] = DNDI: Lipophilicity (eLogD) at pH 7.4; format: physicochemical; settings: buffer
[8] = as §1; format: ADME, Microsome; settings: rat, microsomes; for hepatic extraction ratio: read-out: EH
[9] = DNDI: Solubility, 24 hour, 20 mM Citrate - pH 3, 37C; format: physicochemical; settings: 20 mM citrate buffer, read-out: Equilibrium
[10] = DNDI: Solubility, 24 hour, 50 mM Phosphate - pH 2, 37C; format: physicochemical; settings: 50 mM phosphate buffer, read-out: Equilibrium
[11] = DNDI: Protein binding in human plasma; format: ADME, cell-free; settings: read-out: % bound
Leishmania donovani = assay: DNDI: Inhibition of formation of Leishmania donovani; format: functional, MHOM/ET/67/L82; set-up: concentration or dose not given beside the values
[12] = DNDI: Protein binding in rat plasma; format: ADME, cell-free; settings: read-out: % bound
[13] = as §2; format: ADME, cell-free, Canis lupus familiaris; settings: dog, plasma
[14] = as §2; format: ADME, tissue-based; settings: blood
in vitro [15] = settings: human, microsomes
[16] = as §2; format: ADME, cell-free; settings: plasma
[17] = DNDI: Protein binding in mouse plasma; format: ADME, cell-free; settings: read-out: % bound
[18] = (§4) DNDI: Solubility in phosphate buffer at pH 6.5 determined by nephelometry
[19] = DNDI: Protein binding 10% serum RPMI; format: ADME; settings: RPMI medium with 10% serum; read-out: % bound (converted)
[20] = DNDI: Lipophilicity in water; format: physicochemical
Trypanosoma cruzi [21] = assay: (§5) DNDI: Chagas in Vitro; format: functional, organism-based, Tulahuen C4 (LacZ)
[22] = DNDI: Solubility in 0.01M HCl at pH 2 determined by nephelometry
[23] = DNDI: Protein binding in dog plasma; format: ADME, cell-free, Canis lupus familiaris; settings: read-out: % bound
[24] = DNDI: Solubility, 24 hour, 50 mM phosphate - pH 7.4, 37C; format: physicochemical; settings: 50 mM phosphate buffer, read-out: Equilibrium
in vitro [25] = settings: human, microsomes; remark: listed apart in the source
[26] = DNDI: Protein binding in human liver microsomes; format: ADME, Microsome; settings: read-out: % bound (converted)
[27] = (§6) DNDI: Lipophilicity (gLogD) at pH 3; settings: buffer
[28] = DNDI: pKa; format: physicochemical; settings: read-out: pKa(1)
in vitro [29] = settings: mouse, microsomes; remark: listed apart in the source
[30] = (§7) DNDI: Cytotoxicity against L-6 rat myoblasts from skeletal musclE; settings: L6 rat skeletal muscle myoblasts, IC50
Trypanosoma cruzi [31] = assay: as §5; format: functional, Tulahuen C4 (LacZ)
[32] = DNDI: Lipophilicity (gLogD) at pH 7.4; settings: buffer
[33] = DNDI: Lipophilicity (eLogD) at pH 5; format: physicochemical; settings: buffer
[34] = as §6; format: physicochemical; settings: buffer
[35] = system: Trypanosoma brucei rhodesiense; assay: DNDI: HAT in Vitro; format: functional, organism-based; settings: ATCC 30027
in vitro [36] = settings: human, microsomes; remark: listed apart in the source
[37] = as §4; format: physicochemical
Cytochrome P450 3A4 [38] = biological target: T2, Cytochrome P450 3A4 (Homo sapiens, UniProt P08684)
L6 = assay: as §7
[39] = human, microsomes
[40] = human, microsomes; remark: listed apart in the source
Cytochrome P450 3A4 [41] = biological target: T2, Cytochrome P450 3A4; remark: listed apart in the source
[42] = human, microsomes; remark: listed apart in the source
[43] = Trypanosoma cruzi, Tulahuen C4 (LacZ)

T2 sequence (P08684 whole entry): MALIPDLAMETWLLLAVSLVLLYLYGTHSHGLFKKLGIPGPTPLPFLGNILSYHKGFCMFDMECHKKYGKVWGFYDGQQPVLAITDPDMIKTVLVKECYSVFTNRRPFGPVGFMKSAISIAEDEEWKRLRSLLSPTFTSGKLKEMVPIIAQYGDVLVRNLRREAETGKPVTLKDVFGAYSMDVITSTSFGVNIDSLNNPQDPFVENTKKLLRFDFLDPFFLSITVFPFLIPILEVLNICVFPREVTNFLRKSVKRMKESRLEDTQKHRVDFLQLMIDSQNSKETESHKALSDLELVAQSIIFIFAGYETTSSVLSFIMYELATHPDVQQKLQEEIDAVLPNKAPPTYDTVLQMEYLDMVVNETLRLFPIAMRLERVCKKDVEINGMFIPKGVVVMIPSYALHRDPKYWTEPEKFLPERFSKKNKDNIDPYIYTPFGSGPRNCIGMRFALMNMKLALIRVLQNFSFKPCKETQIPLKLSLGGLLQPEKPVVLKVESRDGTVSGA
Cytochrome P450 2D6, sequence (P10635 whole entry): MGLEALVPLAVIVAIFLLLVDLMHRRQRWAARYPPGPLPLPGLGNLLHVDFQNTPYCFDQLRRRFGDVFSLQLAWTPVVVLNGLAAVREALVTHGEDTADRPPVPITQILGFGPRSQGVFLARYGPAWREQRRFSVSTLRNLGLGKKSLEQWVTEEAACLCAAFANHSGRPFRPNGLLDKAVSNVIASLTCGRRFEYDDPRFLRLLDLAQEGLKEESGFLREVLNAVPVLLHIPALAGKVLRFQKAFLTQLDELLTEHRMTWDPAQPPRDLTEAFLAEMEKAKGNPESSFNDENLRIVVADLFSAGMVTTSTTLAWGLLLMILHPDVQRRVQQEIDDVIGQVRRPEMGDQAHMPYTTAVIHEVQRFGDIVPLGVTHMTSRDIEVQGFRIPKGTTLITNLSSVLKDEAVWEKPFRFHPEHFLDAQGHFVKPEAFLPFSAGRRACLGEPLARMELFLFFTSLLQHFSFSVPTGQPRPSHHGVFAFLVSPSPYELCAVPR

## FC(F)(F)c1ccc(N(c2cccnc2)C2CCN(c3ccc(C(F)(F)F)cn3)CC2)cc1
[1]
  solubility thermodynamic at 24 h: < 0.25 µg/mL
In vitro [2]
  microsomal CLint: 25 µL/min/mg
[3]
  solubility thermodynamic at 24 h: 9680 µg/mL (≈ 20800 µM)
[4]
  half-life: 73 min
  microsomal CLint: 24 µL/min/mg
[5]
  solubility thermodynamic at 24 h: 12.7 µg/mL (≈ 27.2 µM)
[6]
  remaining at 4 h: 108%
Cytochrome P450 1A2
  IC50: > 20000 nM
Cytochrome P450 2D6
  IC50: > 20000 nM
[7]
  chromatographic logD: > 6.05
[8]
  half-life: 115 min
  microsomal CLint: 15 µL/min/mg
[9]
  solubility thermodynamic at 24 h: 53.1 µg/mL (≈ 114 µM)
[10]
  solubility thermodynamic at 24 h: 1430 µg/mL (≈ 3070 µM)
[11]
  fraction unbound: < 0.001
Leishmania donovani
  % inhibition: 37.9%
[12]
  fraction unbound: < 0.001
[13]
  remaining at 4 h: 102%
[14]; human
  remaining at 4 h: 101%
[14]; rat
  remaining at 4 h: 115%
In vitro [15]
  half-life: 45 min
[16]; human
  remaining at 4 h: 97%
[16]; rat
  remaining at 4 h: 96%
[17]
  fraction unbound: < 0.001
[18]
  solubility kinetic: < 1.6 µg/mL
[19]
  fraction unbound: 0.004
[20]
  logD: > 5.95
Trypanosoma cruzi [21]
  IC50: 17 nM
Trypanosoma cruzi [21]; [43]
  IC50: 14 nM
[22]
  solubility kinetic: > 100 µg/mL
[23]
  fraction unbound: 0.01
[24]
  solubility thermodynamic at 24 h: < 0.25 µg/mL
In vitro [25]
  microsomal CLint: 39 µL/min/mg
[26]
  fraction unbound: 0.002
[27]; pH 3
  chromatographic logD: 5
[28]
  pKa: 2.41
In vitro [29]
  half-life: 70 min
[30]
  IC50: > 100000 nM
Trypanosoma cruzi [31]
  IC90: 31 nM and 25 nM
[32]; pH 7.4
  chromatographic logD: > 5.3
[33]
  chromatographic logD: > 6.07

## FC(F)(F)c1ccc(N(c2cncnc2)C2CCN(c3ccc(C(F)(F)F)cn3)CC2)cc1
[34]
  chromatographic logD: 5
[35]
  IC50: > 10000 nM
In vitro [15]
  half-life: 56 min
In vitro [36]
  hepatic extraction ratio: 0.63
Trypanosoma cruzi [21]
  IC50: 5.4 nM and 5 nM
Trypanosoma cruzi [21]; [43]
  IC50: 3.65 nM
In vitro [25]
  microsomal CLint: 30.9 µL/min/mg
[37]
  solubility kinetic: < 1.6 µg/mL
[30]
  IC50: 93200 nM
Trypanosoma cruzi [31]
  IC90: 10 nM
Trypanosoma cruzi [31]; [43]
  IC90: 9.15 nM

## Cc1noc(C)c1C(=O)N1CCC(N(c2ccc(C(F)(F)F)cc2)c2cccnc2)CC1
Cytochrome P450 3A4 [38]
  IC50: 2100 nM
[8]
  half-life: 21.8 min
  microsomal CLint: 79.3 µL/min/mg
  hepatic extraction ratio: 0.72
In vitro [15]
  half-life: 11.8 min
[18]
  solubility kinetic: 12.5 µg/mL (≈ 28.1 µM)
In vitro [36]
  hepatic extraction ratio: 0.89
Trypanosoma cruzi [21]
  IC50: 8 nM and 3.04 nM
[22]
  solubility kinetic: > 100 µg/mL
In vitro [25]
  microsomal CLint: 147 µL/min/mg
[27]; pH 3
  chromatographic logD: 2.4
L6
  IC50: 78500 nM
[30]
  IC50: > 100000 nM
Trypanosoma cruzi [31]
  IC90: 47 nM and 8.38 nM
[32]; pH 7.4
  chromatographic logD: 3.5

## O=C(c1ccc(F)cc1)N1CCC(N(c2ccc(C(F)(F)F)cc2)c2cccnc2)CC1
Cytochrome P450 3A4 [38]
  IC50: 4400 nM
[8]
  half-life: 16.6 min
  microsomal CLint: 105 µL/min/mg
  hepatic extraction ratio: 0.77
In vitro [15]
  half-life: 13.2 min
[18]
  solubility kinetic: 3.1 µg/mL (≈ 6.99 µM)
In vitro [36]
  hepatic extraction ratio: 0.88
Trypanosoma cruzi [21]
  IC50: 7.83 nM
Trypanosoma cruzi [21]; [43]
  IC50: 15 nM
[22]
  solubility kinetic: > 100 µg/mL
In vitro [25]
  microsomal CLint: 131 µL/min/mg
[27]; pH 3
  chromatographic logD: 3.1
L6
  IC50: 44400 nM
[30]
  IC50: 54300 nM
Trypanosoma cruzi [31]
  IC90: 20.7 nM
Trypanosoma cruzi [31]; [43]
  IC90: 28 nM
[32]; pH 7.4
  chromatographic logD: 4.1

## CC(O)C(C)N1CCC(N(c2ccc(C(F)(F)F)cc2)c2cccnc2)CC1 (centres undefined)
[39]
  EH: 0.57
[40]
  t (1 / 2): 55.4 min
In vitro [15]; t (1 / 2)
  half-life: 72.9 min
[18]
  solubility kinetic: 25 µg/mL (≈ 63.5 µM)
In vitro [36]; EH
  hepatic extraction ratio: 0.64
Trypanosoma cruzi [21]
  IC50: 424 nM and 75 nM
[22]
  solubility kinetic: > 100 µg/mL
In vitro [25]; CLint
  microsomal CLint: 23.8 µL/min/mg
[27]; pH 3, logD
  chromatographic logD: 1.3
Cytochrome P450 3A4 [41]
  IC50: > 20000 nM
L6
  IC50: 59600 nM
[30]
  IC50: 64800 nM
Trypanosoma cruzi [31]
  IC90: 960 nM and > 100 nM
[42]
  CLint: 31.3 µL/min/mg
[32]; pH 7.4, logD
  chromatographic logD: 2.9
